For data set [1], the system named is HUVEC. As to the kind of experiment: Cytotoxicity against HUVEC assessed as reduction in cell viability up to 100 uM after 24 hrs by MTT assay. It is filed as cell-based. The following applies: human. A general note: Formazan colour is commonly taken as a measure of viable cells.
In data set [2] the test system is HUVEC. Description: Antiangiogenic activity against HUVEC assessed as reduction in tube formation at 6.25 uM after 24 hrs by matrigel-based light microscopic analysis relative to control. It is filed as functional, Homo sapiens. Also on record: scale not given: the % may be the effect or the level left.
Data set [3] has as its target RAC-alpha serine/threonine-protein kinase (Homo sapiens) (UniProt P31749). As to the kind of experiment: Inhibition of AKT phosphorylation in HUVEC at 6.25 uM after 24 hrs by Western blot analysis relative to control. It is filed as cell-based.
Data set [4] shares this target. As to the kind of experiment: Inhibition of AKT phosphorylation in HUVEC at 3.125 uM after 24 hrs by Western blot analysis relative to control. It counts as cell-based. A general note: In western blotting, separated proteins are transferred to a membrane and probed.
Data set [5] concerns HUVEC. Description: Inhibition of ERK phosphorylation in HUVEC at 6.25 uM after 24 hrs by Western blot analysis relative to control. The conditions noted are these: Homo sapiens. It counts as cell-based.
Data set [6] deals with HUVEC. Description: Down regulation of VEGF expression in HUVEC at 3.125 uM after 24 hrs by Western blot analysis relative to control. It counts as functional, Homo sapiens.
Data set [7] deals with HUVEC. As to the kind of experiment: Down regulation of VEGF expression in HUVEC at 6.25 uM after 24 hrs by Western blot analysis relative to control. It counts as functional, Homo sapiens.
The test system of data set [8] is HUVEC. Description: Inhibition of ERK phosphorylation in HUVEC at 3.125 uM after 24 hrs by Western blot analysis relative to control. It is filed as cell-based. The conditions noted are these: Homo sapiens.
The subject of data set [9] is HUVEC. Description: Antiangiogenic activity against HUVEC assessed as reduction in tube formation at 100 uM after 24 hrs by matrigel-based light microscopic analysis relative to control. It is filed as functional, Homo sapiens. Details: scale not given: the % may be the effect or the level left.
Data set [10] concerns HUVEC. Description: Antiangiogenic activity against HUVEC assessed as reduction in tube formation at 12.5 uM after 24 hrs by matrigel-based light microscopic analysis relative to control. It is filed as functional, Homo sapiens. Also on record: scale not given: the % may be the effect or the level left.

Sequence of RAC-alpha serine/threonine-protein kinase (Homo sapiens) (P31749 whole entry): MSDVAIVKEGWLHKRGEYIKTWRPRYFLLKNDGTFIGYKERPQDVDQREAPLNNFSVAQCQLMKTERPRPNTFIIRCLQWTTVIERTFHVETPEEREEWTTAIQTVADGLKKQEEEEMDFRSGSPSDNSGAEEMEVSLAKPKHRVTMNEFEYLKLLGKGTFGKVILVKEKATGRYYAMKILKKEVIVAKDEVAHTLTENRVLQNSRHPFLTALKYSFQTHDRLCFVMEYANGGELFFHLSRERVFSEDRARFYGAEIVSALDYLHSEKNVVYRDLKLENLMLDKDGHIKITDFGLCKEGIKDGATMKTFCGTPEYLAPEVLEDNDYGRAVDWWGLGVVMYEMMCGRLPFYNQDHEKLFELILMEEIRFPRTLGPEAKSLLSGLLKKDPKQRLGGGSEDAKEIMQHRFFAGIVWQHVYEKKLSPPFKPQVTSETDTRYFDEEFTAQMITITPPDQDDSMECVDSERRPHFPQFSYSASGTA

For `O=C(O)c1ccc(O)cc1` [PARABEN], the Activity entry in [1] is given as “Non-Toxic”.
For the compound `CC(C)(O)c1ccc2c(c1)[C@H](O)C[C@H]1[C@](C)(C(=O)O)CCC[C@]21C`, the Activity result is given as “Toxic” in data set [1] and 20.53% in data set [2]. Further, the fold change (FC) came out at 0.68 in [3]; 1.1 in data set [4]; 0.82 in [5]; 0.89 in data set [6]; 0.69 in data set [7]; 0.98 in data set [8].
Turning to `CC(C)(O)c1ccc2c(c1)C(=O)C[C@H]1[C@](C)(C(=O)O)CCC[C@]21C`, the Activity result in [1] was “Non-Toxic”.
On to `CC(C)(O)c1ccc2c(c1)[C@@H](O)C[C@H]1[C@](C)(C(=O)O)CCC[C@]21C`, for which the Activity entry is reported as “Non-Toxic” in [1] and 8.95% in data set [9].
Take `C=C(C)[C@@H]1CC[C@](C)(O)[C@@H](O)C1`: the Activity entry in [1] is recorded as “Toxic”.
`C=C1CC[C@@H]2[C@](C)(CCC[C@@]2(C)C(=O)O[C@@H]2O[C@H](CO)[C@@H](O)[C@H](O)[C@H]2O)[C@H]1CCC1=CCOC1=O`: the Activity entry in data set [1] is recorded as “Toxic”.
Still for that read-out and setting: for `CC1=CC[C@@H](C(C)(C)O)C[C@@H]1O` the value was “Non-Toxic”.
Take `CC(C)c1ccc2c(c1)CC[C@H]1[C@](C)(C(=O)O)CCC[C@]21C` [DEHYDROABIETIC ACID]: the Activity entry in data set [1] is “Toxic”; in data set [10], 12.09%.

The record behind these values is ChEMBL document CHEMBL4184295, “7α,15-Dihydroxydehydroabietic acid from Pinus koraiensis inhibits the promotion of angiogenesis through downregulation of VEGF, p-Akt and p-ERK in HUVECs” (Bioorg Med Chem Lett, 2018).
